Laboratory results from patent publication US20040242591A1, “Oxazolidinone derivatives as pontential antimicrobials” (priority 2001, published 2004).

Tests used:
[1] = test system: S.aureus ATCC 25923; experiment: MIC by agar incorporation method, S.aureus 25923; type: cell-based, Staphylococus aureus; parameters: unit not given here; settings: Mueller Hinton agar, 10^4 CFU/spot, 18 hours
[2] = test system: MRSA 15187; experiment: MIC by agar incorporation method, MRSA 15187; type: cell-based, Methicillin Resistant Staphylococcus aureus; parameters: unit not given here; settings: Mueller Hinton agar, 10^4 CFU/spot, 24 hours
Text: 2) MRSA 15187—Methicillin Resistant Staphylococcus aureus

[3] = test system: MRSA 562; experiment: MIC by agar incorporation method, MRSA 562; type: cell-based, Methicillin Resistant Staphylococcus aureus; parameters: unit not given here; settings: Mueller Hinton agar, 10^4 CFU/spot, 24 hours
[4] = test system: MRSA 33; experiment: MIC by agar incorporation method, MRSA 33; type: cell-based, Methicillin Resistant Staphylococcus aureus; parameters: unit not given here; settings: Mueller Hinton agar, 10^4 CFU/spot, 24 hours
[5] = test system: Ent. faecalis ATCC 29212; experiment: MIC by agar incorporation method, E.faecalis 29212; type: cell-based, Enterococcus faecalis; parameters: unit not given here; settings: Mueller Hinton agar, 10^4 CFU/spot, 18 hours
Text: 3) Ent. faecalis ATCC 29212—Enterococcus faecalis ATCC 29212

[6] = test system: VRE 6A; experiment: MIC by agar incorporation method, VRE 6A; type: cell-based, Enterococcus faecium; parameters: unit not given here; settings: Mueller Hinton agar, 10^4 CFU/spot, 18 hours
Text: 4) Ent. faecium […]—Enterococcus faecium 6A Van®, Cipro®

[7] = test system: Strep.pyog. ATCC 19615; experiment: MIC by agar incorporation method, S.pyogenes 19615; type: cell-based, Streptococcus pyogenes; parameters: unit not given here; settings: Mueller Hinton agar, 10^4 CFU/spot, 18 hours
Text: 6) Strep.pyog. ATCC 19615—Streptococcus pyogenes

[8] = test system: Strep. pne. ATCC 6303; experiment: MIC by agar incorporation method, S. pneum 6303; type: cell-based, Streptococcus pneumoniae; settings: Mueller Hinton agar, 10^4 CFU/spot, 18 hours
Text: 5) Strep. pne. ATCC 6303—Streptococcus pneumoniae ATCC 6303

[9] = test system: S. pneum AB 34; experiment: MIC by agar incorporation method, S. pneum AB 34; type: cell-based, Streptococcus pneumoniae; parameters: unit not given here; settings: Mueller Hinton agar, 10^4 CFU/spot, 18 hours

SMILES	In Vitro (MIC) S.aureus 25923 [1]	In Vitro (MIC) MRSA 15187 [2]	In Vitro (MIC) MRSA 562 [3]	In Vitro (MIC) MRSA 33 [4]	In Vitro (MIC) E.faecalis 29212 [5]	In Vitro (MIC) VRE 6A [6]	In Vitro (MIC) S.pyogenes 19615 [7]	In Vitro (MIC) S. pneum 6303 [8] [µg/mL]	In Vitro (MIC) S. pneum AB 34 [9]
COc1ccc(CN2CCN(c3ccc(N4C[C@H](CNC(C)=O)OC4=O)cc3F)CC2)o1 [Compound No. 15, (S)-N-[[3-[3-Fluoro-4-[N-1-[4-{2-furyl-(5-methoxy)methyl}]piperazinyl]phenyl]-2-oxo-5-oxazolidinyl]methyl]acetamide]	4	4	4	4	4	4	2	2	2
O=C(CCl)NC[C@H]1CN(c2ccc(N3CCN(Cc4cc(Br)c([N+](=O)[O-])s4)CC3)c(F)c2)C(=O)O1 [Compound No. 48]	4	4	4	4	2	2	16	16	16
CC(=O)NC[C@H]1CN(c2ccc(N3C(C)CN(Cc4ccc([N+](=O)[O-])o4)CC3C)c(F)c2)C(=O)O1 (stereo partly drawn) [Compound No. 63, (S)-N-[[3-[3-Fluoro-4-[N-1-[2,6-dimethyl-4-{2-furyl-(5-nitro)methyl-}]-piperazinyl]phenyl]-2-oxo-5-oxazolidinyl]methyl]acetamide]	16	8	8	8	8	8	16	16	16
CC(=O)NC[C@H]1CN(c2ccc(N3CCN(C(=O)c4ccc([N+](=O)[O-])s4)CC3C)c(F)c2)C(=O)O1 (stereo partly drawn) [Compound No. 60, (S)-N-[[3-[3-Fluoro-4-[N-1-[2-methyl-4-{2-thiophenoyl-(5-nitro)}]-piperazinyl]phenyl]-2-oxo-5-oxazolidinyl]methyl]acetamide]	0.25	<0.125	<0.125	<0.125	1	1	0.5	4	4
CC(=O)NC[C@H]1CN(c2ccc(N3CCC(N(C)Cc4ccc([N+](=O)[O-])s4)C3)c(F)c2)C(=O)O1 (stereo partly drawn) [Compound No. 90, (S)-N-[[3-[3-Fluoro-4-[N-1,3-[N-methyl[N-{2-thiophenyl(5-nitro)methyl}]aminopyrodinyl]phenyl]]-2-oxo-5-oxazolidinyl]methyl]acetamide]	4	2	2	4	4	4	2	4	4
O=C(NC[C@H]1CN(c2ccc(N3CCN(Cc4ccc([N+](=O)[O-])o4)CC3)c(F)c2)C(=O)O1)C(F)F [Compound No. 45, (S)-N-[[3-[3-Fluoro-4-[N-1-[4-{2-furyl(5-nitro)methyl}]piperazinyl]phenyl]-2-oxo-5-oxazolidinyl]methyl]-difluoroacetamide]	2	1	2	2	2	2	0.5	0.5	2
CC(=O)NC[C@H]1CN(c2ccc(N3CCN(C(=O)c4occc4C)CC3)c(F)c2)C(=O)O1 [Compound No. 36, (S)-N-[[3-[3-Fluoro-4-[N-1-[4-{2-furoyl-(3-methyl)}]piperazinyl]phenyl]-2-oxo-5-oxazolidinyl]methyl]acetamide]	2	2	2	2	2	1	1	0.5	1
